Measurements as given in ChEMBL document CHEMBL4507291 (2021).

Key:
[1] = biological target: Tyrosine-protein kinase Fgr (Homo sapiens) (UniProt P09769); test: FGR Kinase screen; details: Compound concentration 1.0 uM
[2] = Inhibition of Atrial Natriuretic Factor (ANF) at 10 µM in the Eurofins-Panlabs radioligand binding assay (Eurofins_assay_211000); details: Cavia porcellus
[3] = biological target: T1, Serine/threonine-protein kinase D3 (Homo sapiens) (UniProt O94806); test: PRKCN (PKD3) Kinase screen; details: Compound concentration 1.0 uM
T1 sequence (whole entry): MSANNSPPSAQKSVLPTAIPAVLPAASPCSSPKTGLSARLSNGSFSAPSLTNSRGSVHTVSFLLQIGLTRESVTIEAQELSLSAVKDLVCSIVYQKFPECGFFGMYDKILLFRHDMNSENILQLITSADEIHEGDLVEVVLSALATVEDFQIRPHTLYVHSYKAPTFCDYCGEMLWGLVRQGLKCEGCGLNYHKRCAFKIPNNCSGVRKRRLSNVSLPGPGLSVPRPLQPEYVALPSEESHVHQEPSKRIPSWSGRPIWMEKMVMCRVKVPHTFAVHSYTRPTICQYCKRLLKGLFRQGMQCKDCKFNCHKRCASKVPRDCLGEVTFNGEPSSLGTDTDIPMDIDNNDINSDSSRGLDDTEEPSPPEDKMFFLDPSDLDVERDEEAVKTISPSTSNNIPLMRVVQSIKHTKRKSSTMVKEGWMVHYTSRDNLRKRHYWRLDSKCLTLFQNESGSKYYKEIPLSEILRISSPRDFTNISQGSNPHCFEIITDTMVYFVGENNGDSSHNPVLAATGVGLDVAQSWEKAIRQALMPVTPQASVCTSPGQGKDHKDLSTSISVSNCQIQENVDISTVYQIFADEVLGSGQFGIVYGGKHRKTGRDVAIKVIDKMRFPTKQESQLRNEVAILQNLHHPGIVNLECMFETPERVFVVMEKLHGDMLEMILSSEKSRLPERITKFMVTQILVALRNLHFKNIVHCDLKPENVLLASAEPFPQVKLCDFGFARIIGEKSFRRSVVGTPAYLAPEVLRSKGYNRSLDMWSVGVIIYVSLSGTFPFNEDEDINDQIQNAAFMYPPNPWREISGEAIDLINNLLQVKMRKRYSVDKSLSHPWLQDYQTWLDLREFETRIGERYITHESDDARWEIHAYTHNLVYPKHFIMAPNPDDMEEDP

[4] = biological target: Phosphatidylinositol 4-phosphate 3-kinase C2 domain-containing subunit beta (Homo sapiens) (UniProt O00750); test: PIK3C2B (PI3K-C2 beta) Kinase screen; details: Compound concentration 1.0 uM
[5] = biological target: Mitogen-activated protein kinase 10 (Homo sapiens) (UniProt P53779); test: MAPK10 (JNK3) Kinase screen; details: Compound concentration 1.0 uM
[6] = biological target: T2, Tyrosine-protein kinase ZAP-70 (Homo sapiens) (UniProt P43403); test: ZAP70 Kinase screen; details: Compound concentration 1.0 uM
T2 sequence (whole entry): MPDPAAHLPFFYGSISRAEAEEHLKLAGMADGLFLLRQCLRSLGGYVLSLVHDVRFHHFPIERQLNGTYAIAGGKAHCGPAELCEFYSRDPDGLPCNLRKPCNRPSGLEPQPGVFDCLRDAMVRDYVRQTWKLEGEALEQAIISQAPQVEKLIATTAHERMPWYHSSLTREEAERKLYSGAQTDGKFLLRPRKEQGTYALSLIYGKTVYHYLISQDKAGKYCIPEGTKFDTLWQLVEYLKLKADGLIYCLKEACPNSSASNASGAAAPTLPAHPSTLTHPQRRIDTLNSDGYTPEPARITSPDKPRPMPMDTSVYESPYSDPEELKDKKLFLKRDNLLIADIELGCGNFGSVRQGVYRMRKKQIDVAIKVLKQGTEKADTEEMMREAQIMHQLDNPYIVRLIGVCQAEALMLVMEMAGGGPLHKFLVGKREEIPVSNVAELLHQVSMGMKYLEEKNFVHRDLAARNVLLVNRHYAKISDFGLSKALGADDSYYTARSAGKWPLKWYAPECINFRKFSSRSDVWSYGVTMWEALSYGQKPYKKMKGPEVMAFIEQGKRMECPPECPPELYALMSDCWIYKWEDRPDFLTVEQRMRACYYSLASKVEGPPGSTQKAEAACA

[7] = biological target: Platelet-activating factor receptor (Homo sapiens) (UniProt P25105); test: Inhibition of Platelet Activating Factor (PAF) at 10 µM in the Eurofins-Panlabs radioligand binding assay (Eurofins_assay_265010); details: Compound concentration 10.0 uM
[8] = tested on: Proto-oncogene tyrosine-protein kinase receptor Ret (Homo sapiens), P07949 [V804L]; test: RET V804L Kinase screen; details: Compound concentration 1.0 uM
[9] = biological target: T3, MAP/microtubule affinity-regulating kinase 4 (Homo sapiens) (UniProt Q96L34); test: MARK4 Kinase screen; details: Compound concentration 1.0 uM
T3 sequence (whole entry): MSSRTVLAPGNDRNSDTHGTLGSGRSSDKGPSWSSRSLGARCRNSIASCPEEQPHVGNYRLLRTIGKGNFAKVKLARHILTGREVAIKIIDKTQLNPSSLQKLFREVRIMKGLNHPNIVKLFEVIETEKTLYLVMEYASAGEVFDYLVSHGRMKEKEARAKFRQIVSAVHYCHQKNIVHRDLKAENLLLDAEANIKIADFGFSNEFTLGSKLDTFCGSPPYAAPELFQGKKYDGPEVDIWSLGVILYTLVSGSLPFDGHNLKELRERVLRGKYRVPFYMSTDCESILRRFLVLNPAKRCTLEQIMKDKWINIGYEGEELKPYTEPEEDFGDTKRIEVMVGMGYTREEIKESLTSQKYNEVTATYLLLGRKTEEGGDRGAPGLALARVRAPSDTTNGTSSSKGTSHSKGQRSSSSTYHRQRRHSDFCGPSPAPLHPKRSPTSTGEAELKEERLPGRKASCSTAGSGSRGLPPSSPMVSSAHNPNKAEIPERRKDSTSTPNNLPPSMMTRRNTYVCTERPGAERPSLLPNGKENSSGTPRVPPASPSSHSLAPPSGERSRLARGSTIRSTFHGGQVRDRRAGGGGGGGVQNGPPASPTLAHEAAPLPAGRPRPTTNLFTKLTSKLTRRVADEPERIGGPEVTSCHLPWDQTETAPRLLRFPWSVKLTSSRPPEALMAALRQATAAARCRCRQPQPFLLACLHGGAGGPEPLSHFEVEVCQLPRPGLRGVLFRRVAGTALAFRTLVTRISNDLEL

[10] = biological target: MAP kinase-activated protein kinase 2 (Homo sapiens) (UniProt P49137); test: MAPKAPK2 Kinase screen; details: Compound concentration 1.0 uM
[11] = biological target: SRSF protein kinase 1 (Homo sapiens) (UniProt Q96SB4); test: SRPK1 Kinase screen; details: Compound concentration 1.0 uM
[12] = biological target: Insulin-like growth factor 1 receptor (Homo sapiens) (UniProt P08069); test: IGF1R Kinase screen; details: Compound concentration 1.0 uM
[13] = biological target: Rho-associated protein kinase 2 (Homo sapiens) (UniProt O75116); test: ROCK2 Kinase screen; details: Compound concentration 1.0 uM
[14] = biological target: Histamine H2 receptor (Homo sapiens) (UniProt P25021); details: Compound concentration 10.0 uM
[15] = biological target: 5-hydroxytryptamine receptor 2B (Homo sapiens, UniProt P41595); test: Inhibition of Serotonin (5-Hydroxytryptamine) 5-HT2B at compound concentration of 10.0 uM in the Eurofins-Panlabs radioligand binding assay (Eurofins_assay_271700); parameters: ligand concentration 1.2 nM, non-specific ligand with concentration 10 uM Serotonin (5-HT), incubation time 60 min, incubation temperature 37 C
5-hydroxytryptamine receptor 2B, sequence (P41595 whole entry): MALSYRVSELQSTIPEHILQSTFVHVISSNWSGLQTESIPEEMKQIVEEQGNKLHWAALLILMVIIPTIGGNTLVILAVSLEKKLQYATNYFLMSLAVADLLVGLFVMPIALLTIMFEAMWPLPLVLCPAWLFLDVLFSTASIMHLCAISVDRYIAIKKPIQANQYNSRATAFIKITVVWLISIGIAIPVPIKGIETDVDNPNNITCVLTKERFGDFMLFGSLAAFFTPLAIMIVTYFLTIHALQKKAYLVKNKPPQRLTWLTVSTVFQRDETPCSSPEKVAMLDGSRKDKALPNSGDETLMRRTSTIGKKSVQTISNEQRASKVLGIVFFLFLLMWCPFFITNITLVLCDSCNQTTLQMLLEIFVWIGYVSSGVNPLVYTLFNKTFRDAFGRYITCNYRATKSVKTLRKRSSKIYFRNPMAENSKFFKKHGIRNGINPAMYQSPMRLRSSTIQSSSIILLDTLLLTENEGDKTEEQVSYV

Platelet-activating factor receptor (Homo sapiens), sequence (P25105 whole entry): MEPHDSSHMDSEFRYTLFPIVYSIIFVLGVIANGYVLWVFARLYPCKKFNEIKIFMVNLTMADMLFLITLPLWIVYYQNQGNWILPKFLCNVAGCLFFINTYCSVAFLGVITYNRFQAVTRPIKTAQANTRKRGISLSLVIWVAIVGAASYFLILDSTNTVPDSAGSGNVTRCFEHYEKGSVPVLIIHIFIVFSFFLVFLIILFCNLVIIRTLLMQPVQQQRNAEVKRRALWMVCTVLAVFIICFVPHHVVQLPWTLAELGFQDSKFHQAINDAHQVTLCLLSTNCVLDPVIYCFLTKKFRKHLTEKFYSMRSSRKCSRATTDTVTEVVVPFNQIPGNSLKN
Rho-associated protein kinase 2 (Homo sapiens), sequence (O75116 whole entry, looked up): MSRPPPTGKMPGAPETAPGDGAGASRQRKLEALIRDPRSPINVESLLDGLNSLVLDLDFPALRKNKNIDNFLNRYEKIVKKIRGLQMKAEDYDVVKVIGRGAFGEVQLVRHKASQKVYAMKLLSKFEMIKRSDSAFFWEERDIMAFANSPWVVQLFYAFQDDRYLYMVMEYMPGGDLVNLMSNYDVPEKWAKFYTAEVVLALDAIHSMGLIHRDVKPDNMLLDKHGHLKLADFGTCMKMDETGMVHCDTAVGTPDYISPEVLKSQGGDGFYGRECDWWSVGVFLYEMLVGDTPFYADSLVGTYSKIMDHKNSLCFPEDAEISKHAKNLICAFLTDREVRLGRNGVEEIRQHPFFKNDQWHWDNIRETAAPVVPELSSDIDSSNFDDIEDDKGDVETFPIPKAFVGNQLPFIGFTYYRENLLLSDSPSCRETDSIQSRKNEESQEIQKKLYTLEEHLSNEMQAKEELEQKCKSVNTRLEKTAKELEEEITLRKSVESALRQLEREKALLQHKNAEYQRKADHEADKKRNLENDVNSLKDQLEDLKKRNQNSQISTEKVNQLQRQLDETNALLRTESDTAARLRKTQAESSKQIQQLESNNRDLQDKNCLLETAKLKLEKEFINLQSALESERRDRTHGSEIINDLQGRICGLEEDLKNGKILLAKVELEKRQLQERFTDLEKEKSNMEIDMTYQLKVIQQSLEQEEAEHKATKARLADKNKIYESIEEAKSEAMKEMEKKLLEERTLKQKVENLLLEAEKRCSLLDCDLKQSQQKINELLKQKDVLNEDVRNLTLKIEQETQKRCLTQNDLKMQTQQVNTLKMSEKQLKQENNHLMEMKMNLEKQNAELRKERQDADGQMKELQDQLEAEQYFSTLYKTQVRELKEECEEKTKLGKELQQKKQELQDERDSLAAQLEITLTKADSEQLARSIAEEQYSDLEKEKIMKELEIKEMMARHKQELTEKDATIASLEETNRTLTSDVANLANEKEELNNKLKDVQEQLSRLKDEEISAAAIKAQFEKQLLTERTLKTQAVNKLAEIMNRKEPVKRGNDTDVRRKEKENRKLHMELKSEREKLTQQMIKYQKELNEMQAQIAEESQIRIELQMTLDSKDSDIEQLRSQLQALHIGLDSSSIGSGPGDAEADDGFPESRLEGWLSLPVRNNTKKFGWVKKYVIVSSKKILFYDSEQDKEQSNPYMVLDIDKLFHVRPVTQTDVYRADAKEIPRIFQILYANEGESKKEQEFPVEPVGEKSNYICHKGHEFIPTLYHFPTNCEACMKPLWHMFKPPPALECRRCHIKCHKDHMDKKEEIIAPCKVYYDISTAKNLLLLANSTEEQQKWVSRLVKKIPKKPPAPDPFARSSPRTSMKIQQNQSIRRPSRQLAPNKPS
Histamine H2 receptor (Homo sapiens), sequence (P25021 whole entry): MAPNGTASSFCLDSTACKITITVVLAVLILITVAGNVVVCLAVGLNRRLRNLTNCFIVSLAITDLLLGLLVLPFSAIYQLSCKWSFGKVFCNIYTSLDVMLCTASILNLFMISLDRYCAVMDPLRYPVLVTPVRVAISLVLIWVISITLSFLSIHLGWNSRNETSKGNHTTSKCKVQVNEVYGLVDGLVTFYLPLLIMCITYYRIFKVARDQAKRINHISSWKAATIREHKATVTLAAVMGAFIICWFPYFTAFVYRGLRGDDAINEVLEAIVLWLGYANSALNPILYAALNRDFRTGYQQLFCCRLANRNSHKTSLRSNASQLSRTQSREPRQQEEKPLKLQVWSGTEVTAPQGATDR
Insulin-like growth factor 1 receptor (Homo sapiens), sequence (P08069 31-736 limits assumed): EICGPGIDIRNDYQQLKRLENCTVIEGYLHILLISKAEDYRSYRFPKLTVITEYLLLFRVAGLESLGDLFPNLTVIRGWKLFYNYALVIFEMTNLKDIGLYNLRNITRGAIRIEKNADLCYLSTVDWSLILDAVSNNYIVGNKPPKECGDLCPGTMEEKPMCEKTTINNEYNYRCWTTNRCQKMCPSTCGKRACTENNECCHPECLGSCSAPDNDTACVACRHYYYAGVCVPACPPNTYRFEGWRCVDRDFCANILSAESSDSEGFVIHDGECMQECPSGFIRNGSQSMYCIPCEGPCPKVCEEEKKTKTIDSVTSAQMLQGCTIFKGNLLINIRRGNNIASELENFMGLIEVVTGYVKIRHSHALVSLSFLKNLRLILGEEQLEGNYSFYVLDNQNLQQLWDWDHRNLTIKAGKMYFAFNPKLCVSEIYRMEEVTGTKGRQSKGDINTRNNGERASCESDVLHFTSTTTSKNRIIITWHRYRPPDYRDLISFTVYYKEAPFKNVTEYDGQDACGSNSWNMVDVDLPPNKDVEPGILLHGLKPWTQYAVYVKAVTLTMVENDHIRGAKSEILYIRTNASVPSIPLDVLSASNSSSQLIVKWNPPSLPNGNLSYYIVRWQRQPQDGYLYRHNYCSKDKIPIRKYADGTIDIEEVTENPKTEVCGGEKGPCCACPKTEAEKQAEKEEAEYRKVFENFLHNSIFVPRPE
Insulin-like growth factor 1 receptor (Homo sapiens), sequence (P08069 741-1367 limits assumed): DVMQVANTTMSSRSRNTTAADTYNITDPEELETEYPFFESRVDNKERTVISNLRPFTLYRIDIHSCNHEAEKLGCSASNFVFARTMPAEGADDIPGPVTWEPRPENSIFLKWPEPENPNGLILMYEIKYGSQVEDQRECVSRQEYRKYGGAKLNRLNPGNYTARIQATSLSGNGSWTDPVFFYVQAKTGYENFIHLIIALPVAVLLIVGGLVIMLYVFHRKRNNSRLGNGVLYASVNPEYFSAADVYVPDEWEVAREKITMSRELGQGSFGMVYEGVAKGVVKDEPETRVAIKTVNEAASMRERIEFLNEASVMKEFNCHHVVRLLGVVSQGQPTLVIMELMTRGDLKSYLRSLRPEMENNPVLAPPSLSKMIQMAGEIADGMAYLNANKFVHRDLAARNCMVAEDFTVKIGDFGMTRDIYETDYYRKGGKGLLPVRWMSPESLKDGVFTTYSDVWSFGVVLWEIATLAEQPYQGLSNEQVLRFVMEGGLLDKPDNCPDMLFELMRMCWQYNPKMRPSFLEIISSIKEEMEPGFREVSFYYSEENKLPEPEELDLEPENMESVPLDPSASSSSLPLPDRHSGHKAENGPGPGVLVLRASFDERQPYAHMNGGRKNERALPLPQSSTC
Mitogen-activated protein kinase 10 (Homo sapiens), sequence (P53779 whole entry): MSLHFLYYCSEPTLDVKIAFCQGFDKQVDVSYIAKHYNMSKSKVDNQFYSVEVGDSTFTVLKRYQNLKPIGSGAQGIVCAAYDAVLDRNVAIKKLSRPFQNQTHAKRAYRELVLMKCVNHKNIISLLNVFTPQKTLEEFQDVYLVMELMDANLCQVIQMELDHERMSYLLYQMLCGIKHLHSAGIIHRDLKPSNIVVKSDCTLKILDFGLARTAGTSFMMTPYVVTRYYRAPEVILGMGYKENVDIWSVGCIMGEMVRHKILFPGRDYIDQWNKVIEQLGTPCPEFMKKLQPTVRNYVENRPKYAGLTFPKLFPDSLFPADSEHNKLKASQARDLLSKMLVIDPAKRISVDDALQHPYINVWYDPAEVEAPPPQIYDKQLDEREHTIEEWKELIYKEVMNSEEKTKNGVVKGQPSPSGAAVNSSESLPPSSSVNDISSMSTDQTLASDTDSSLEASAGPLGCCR
Tyrosine-protein kinase Fgr (Homo sapiens), sequence (P09769 2-529 limits assumed): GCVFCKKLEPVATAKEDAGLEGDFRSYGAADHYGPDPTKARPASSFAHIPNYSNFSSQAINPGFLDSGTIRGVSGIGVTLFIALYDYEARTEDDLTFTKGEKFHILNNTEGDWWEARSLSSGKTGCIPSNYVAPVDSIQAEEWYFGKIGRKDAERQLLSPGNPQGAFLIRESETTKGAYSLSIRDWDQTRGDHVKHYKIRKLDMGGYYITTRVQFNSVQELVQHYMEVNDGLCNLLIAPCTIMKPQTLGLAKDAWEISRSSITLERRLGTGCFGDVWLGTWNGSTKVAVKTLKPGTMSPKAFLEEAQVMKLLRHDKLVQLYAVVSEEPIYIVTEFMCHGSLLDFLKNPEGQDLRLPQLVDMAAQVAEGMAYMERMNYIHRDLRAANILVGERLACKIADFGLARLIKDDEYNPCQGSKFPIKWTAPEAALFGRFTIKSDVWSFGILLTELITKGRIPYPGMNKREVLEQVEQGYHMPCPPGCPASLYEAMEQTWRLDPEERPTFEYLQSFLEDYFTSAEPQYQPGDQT

C[C@@H]1CN(c2cc(-c3n[nH]c4ccc(OC5(C)CC5)cc34)ncn2)C[C@H](C)O1 [MLi-2]
750 nM: Ki [15]
-2% (not active): inhibition at 10 µM [2]
inactive: inhibition [1] -2.24% | inhibition [3] 21.1% | inhibition [4] -3.26% | inhibition [5] 13.6% | inhibition [6] 10.2% | inhibition [7] 33% | inhibition [8] 5.69% | inhibition [9] 15.7% | inhibition [10] 2.35% | inhibition [11] 6.15% | inhibition [12] 1.96% | inhibition [13] 10.2% | inhibition [14] 2%
